Laboratory results reported in US20230085307A1, “PYRIDAZINONE COMPOUND AND HERBICIDE” (NISSAN CHEMICAL CORPORATION, priority 2019, published 2023).

Legend:
[1] = tested on: oval-leafed pondweed; test: Test Example 1: herbicidal activity, application before weed generation under submerged conditions (Table 16, symbol C); assay type: in vivo, oval-leafed pondweed (Monochoria vaginalis); details: 320 g/ha applied herbicide
Procedure, shortened: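 Alluvial soil was flooded to 4 cm depth, weed seeds were sown mixed and 2.5-leaf rice seedlings were transplanted. On sowing day, the compound's emulsion, diluted in water to a set dose, was applied to the water surface. Plants grew at 25–30 °C and were scored 0–5 after three weeks.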

[2] = tested on: redroot pigweed; test: Test Example 4: herbicidal effect by soil treatment (Table 19, symbol N); assay type: in vivo, redroot pigweed (Amaranthus retroflexus); details: amount of applied herbicide 320 g/ha
Procedure, shortened: (§1)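 Step 1: sow seeds in sterilized diluvial soil, cover ~1.5 cm. Step 2: spray diluted emulsion onto soil surface at predetermined rate. Step 3: greenhouse, 25–30° C, three weeks. Step 4: grade effect on each plant by earlier criteria.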

[3] = tested on: Italian ryegrass; test: Test Example 4: herbicidal effect by soil treatment (Table 19, symbol K); assay type: in vivo, Italian ryegrass (Lolium multiflorum); details: amount of applied herbicide 320 g/ha
Procedure, shortened: as §1

[4] = tested on: wild oat; test: Test Example 4: herbicidal effect by soil treatment (Table 19, symbol I); assay type: in vivo, wild oat (Avena fatua); details: amount of applied herbicide 320 g/ha
Procedure, shortened: as §1

[5] = tested on: persian speedwell; test: Test Example 5: herbicidal effect by foliage application, plastic box (Table 20, symbol R); assay type: in vivo, Persian speedwell (Veronica persica); details: foliage application, 320 g/ha, three weeks after application
Procedure, shortened: (§2)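 Foliar spray test: emulsion formulation diluted in water to a set application rate, sprayed onto 14-day-old plants raised in diluvial soil at 25° C to 30° C under glass. Both herbicidal effect and crop effect rated visually three weeks later.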

[6] = tested on: wild oat; test: Test Example 5: herbicidal effect by foliage application, plastic box (Table 20, symbol I); assay type: in vivo, wild oat (Avena fatua); details: foliage application, 320 g/ha, three weeks after application
Procedure, shortened: as §2

[7] = tested on: Italian ryegrass; test: Test Example 5: herbicidal effect by foliage application, plastic box (Table 20, symbol K); assay type: in vivo, Italian ryegrass (Lolium multiflorum); details: foliage application, 320 g/ha, three weeks after application
Procedure, shortened: as §2

[8] = tested on: chickweed; test: Test Example 4: herbicidal effect by soil treatment (Table 19, symbol P); assay type: in vivo, common chickweed (Stellaria media); details: amount of applied herbicide 320 g/ha
Procedure, shortened: as §1

[9] = tested on: velvetleaf; test: Test Example 4: herbicidal effect by soil treatment (Table 19, symbol M); assay type: in vivo, velvetleaf (Abutilon theophrasti); details: amount of applied herbicide 320 g/ha
Procedure, shortened: as §1

[10] = tested on: green foxtail; test: Test Example 5: herbicidal effect by foliage application, plastic box (Table 20, symbol G); assay type: in vivo, green foxtail (Setaria viridis); details: foliage application, 320 g/ha, three weeks after application
Procedure, shortened: as §2

[11] = tested on: oval-leafed pondweed; test: Test Example 2: herbicidal activity, application during weed generation under submerged conditions (Table 17, symbol C); assay type: in vivo, oval-leafed pondweed (Monochoria vaginalis); details: AAH 320 g/ha; application during weed generation, submerged conditions
Procedure, shortened: (§3)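 Alluvial soil in Wagner pots was flooded to 4 cm depth and sown with the three weeds together; pots were kept in a greenhouse at 25° C. to 30° C. At the one to two leaf stage, an emulsion formulation diluted in water to a set rate went onto the water surface; scored three weeks later.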

[12] = tested on: velvetleaf; test: Test Example 5: herbicidal effect by foliage application, plastic box (Table 20, symbol M); assay type: in vivo, velvetleaf (Abutilon theophrasti); details: foliage application, 320 g/ha, three weeks after application
Procedure, shortened: as §2

[13] = tested on: green foxtail; test: Test Example 4: herbicidal effect by soil treatment (Table 19, symbol G); assay type: in vivo, green foxtail (Setaria viridis); details: amount of applied herbicide 320 g/ha
Procedure, shortened: as §1

[14] = tested on: rice flat sedge; test: Test Example 3: herbicidal effect by foliage application, Wagner pot (Table 18, symbol E); assay type: in vivo, rice flat sedge (Cyperus iria); details: 320 g/ha
Procedure, shortened: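 Plants were sown in alluvial soil held under 0.1–0.5 cm standing water and grown 14 days in a greenhouse at 25–30 °C. An emulsifiable formulation, water-diluted to the set dose, was then sprayed onto the foliage, and effects were scored three weeks later using previously defined criteria.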

[15] = tested on: late watergrass; test: Test Example 2: herbicidal activity, application during weed generation under submerged conditions (Table 17, symbol A); assay type: in vivo, late watergrass (Echinochloa oryzicola); details: AAH 320 g/ha; application during weed generation, submerged conditions
Procedure, shortened: as §3

[16] = tested on: blackgrass; test: Test Example 4: herbicidal effect by soil treatment (Table 19, symbol J); assay type: in vivo, blackgrass (Alopecurus myosuroides); details: amount of applied herbicide 320 g/ha
Procedure, shortened: as §1

[17] = tested on: southern crabgrass; test: Test Example 5: herbicidal effect by foliage application, plastic box (Table 20, symbol F); assay type: in vivo, southern crabgrass (Digitaria ciliaris); details: foliage application, 320 g/ha, three weeks after application
Procedure, shortened: as §2

Row | SMILES | Herbicidal effect on C: oval-leafed pondweed (grade 0-5) [1] | herbicidal effect rating, N: redroot pigweed [2] | herbicidal effect rating, K: Italian ryegrass [3] | herbicidal effect rating, I: wild oat [4] | herbicidal effect grade, R: persian speedwell [5] | herbicidal effect grade, I: wild oat [6] | herbicidal effect grade, K: Italian ryegrass [7] | herbicidal effect rating, P: chickweed [8] | herbicidal effect rating, M: velvetleaf [9] | herbicidal effect grade, G: green foxtail [10] | herbicidal effect rating, C: oval-leafed pondweed [11] | herbicidal effect grade, M: velvetleaf [12] | herbicidal effect rating, G: green foxtail [13] | herbicidal effect on E (rice flat sedge), rating 0-5 [14] | herbicidal effect rating, A: late watergrass [15] | herbicidal effect rating, J: blackgrass [16] | herbicidal effect grade, F: southern crabgrass [17]
1 | CCCC(=O)Oc1c(C)nn(C)c(=O)c1-c1c(-c2ccc(C(C)=NOC)cc2)sc2ccccc12 [1-044] | 5 (Herbicidal rate of 90% or more (almost completely withered)) | 4 (Herbicidal rate of 70% or more and less than 90%) | 2 (Herbicidal rate of 20% or more and less than 40%) | 0 (Herbicidal rate of 5% or less (almost no effect)) | 5 (Herbicidal rate of 90% or more (almost completely withered)) | 4 (Herbicidal rate of 70% or more and less than 90%) | 4 (Herbicidal rate of 70% or more and less than 90%) | 5 (Herbicidal rate of 90% or more (almost completely withered)) | 0 (Herbicidal rate of 5% or less (almost no effect)) | 5 (Herbicidal rate of 90% or more (almost completely withered)) | 1 (Herbicidal rate of 5% or more and less than 20%) | 5 (Herbicidal rate of 90% or more (almost completely withered)) | 4 (Herbicidal rate of 70% or more and less than 90%) | 5 (Herbicidal rate of 90% or more (almost completely withered)) | 4 (Herbicidal rate of 70% or more and less than 90%) | 0 (Herbicidal rate of 5% or less (almost no effect)) | 4 (Herbicidal rate of 70% or more and less than 90%)
2 | Cc1cc(-c2sc3ccccc3c2-c2c(O)c(C)nn(C)c2=O)ccc1F [1-051] | 0 (Herbicidal rate of 5% or less (almost no effect)) | 4 (Herbicidal rate of 70% or more and less than 90%) | 3 (Herbicidal rate of 40% or more and less than 70%) | 0 (Herbicidal rate of 5% or less (almost no effect)) | 5 (Herbicidal rate of 90% or more (almost completely withered)) | 3 (Herbicidal rate of 40% or more and less than 70%) | 3 (Herbicidal rate of 40% or more and less than 70%) | 3 (Herbicidal rate of 40% or more and less than 70%) | 4 (Herbicidal rate of 70% or more and less than 90%) | 5 (Herbicidal rate of 90% or more (almost completely withered)) | 0 (Herbicidal rate of 5% or less (almost no effect)) | 5 (Herbicidal rate of 90% or more (almost completely withered)) | 5 (Herbicidal rate of 90% or more (almost completely withered)) | 5 (Herbicidal rate of 90% or more (almost completely withered)) | 2 (Herbicidal rate of 20% or more and less than 40%) | 0 (Herbicidal rate of 5% or less (almost no effect)) | 3 (Herbicidal rate of 40% or more and less than 70%)
3 | CCOc1cc(F)ccc1-c1sc2ccccc2c1-c1c(O)c(C)nn(C)c1=O [1-061] | 3 (Herbicidal rate of 40% or more and less than 70%) | 4 (Herbicidal rate of 70% or more and less than 90%) | 3 (Herbicidal rate of 40% or more and less than 70%) | 3 (Herbicidal rate of 40% or more and less than 70%) | 5 (Herbicidal rate of 90% or more (almost completely withered)) | 5 (Herbicidal rate of 90% or more (almost completely withered)) | 4 (Herbicidal rate of 70% or more and less than 90%) | 5 (Herbicidal rate of 90% or more (almost completely withered)) | 0 (Herbicidal rate of 5% or less (almost no effect)) | 5 (Herbicidal rate of 90% or more (almost completely withered)) | 4 (Herbicidal rate of 70% or more and less than 90%) | 5 (Herbicidal rate of 90% or more (almost completely withered)) | 5 (Herbicidal rate of 90% or more (almost completely withered)) | 5 (Herbicidal rate of 90% or more (almost completely withered)) | 0 (Herbicidal rate of 5% or less (almost no effect)) | 5 (Herbicidal rate of 90% or more (almost completely withered)) | 5 (Herbicidal rate of 90% or more (almost completely withered))
4 | CCCC(=O)Oc1c(C)nn(C)c(=O)c1-c1c(-c2ccc(OC)c(OC)c2)sc2ccccc12 [1-073] | 0 (Herbicidal rate of 5% or less (almost no effect)) | 4 (Herbicidal rate of 70% or more and less than 90%) | 5 (Herbicidal rate of 90% or more (almost completely withered)) | 2 (Herbicidal rate of 20% or more and less than 40%) | 5 (Herbicidal rate of 90% or more (almost completely withered)) | 2 (Herbicidal rate of 20% or more and less than 40%) | 5 (Herbicidal rate of 90% or more (almost completely withered)) | 4 (Herbicidal rate of 70% or more and less than 90%) | 4 (Herbicidal rate of 70% or more and less than 90%) | 5 (Herbicidal rate of 90% or more (almost completely withered)) | 5 (Herbicidal rate of 90% or more (almost completely withered)) | 5 (Herbicidal rate of 90% or more (almost completely withered)) | 5 (Herbicidal rate of 90% or more (almost completely withered)) | 5 (Herbicidal rate of 90% or more (almost completely withered)) | 4 (Herbicidal rate of 70% or more and less than 90%) | 2 (Herbicidal rate of 20% or more and less than 40%) | 5 (Herbicidal rate of 90% or more (almost completely withered))
